Values of other authors, collected in patent EP1783518B1, “Functionalized dyes and use thereof in ophthalmic lens material” (Ophtec B.V., priority 2005, dated 2007).
Values after ≈ are worked out from the molar mass of the structure shown.

solubility in water [mg/mL] | solubility in EGME (ethylene glycol monomethyl ether (EGME)) [mg/mL] | SMILES
40 |  | Cc1cc(N=Nc2ccc(N=Nc3ccc(S(=O)(=O)O)cc3)cc2)cc(C(=O)O)c1O.[Na+] [Mordant Orange 10]
 | 80 (≈ 253 mM) | Cc1cc(N=Nc2ccc(N=Nc3ccccc3)cc2)ccc1O [Disperse Yellow 7, 4-[[p-(phenylazo)phenyl]azo]-o-cresol]
40 |  | O=C(O)c1cc(N=Nc2ccc(N=Nc3ccc(S(=O)(=O)[O-])cc3)cc2)ccc1[O-].[Na+].[Na+] [Mordant Orange 6]
